In US20120172298A1, “GLP-1 AND FGF21 COMBINATIONS FOR TREATMENT OF DIABETES TYPE 2” (Novo Nordisk A/S, priority 2009, published 2012):
Several values for one entry are separate records, joined by “and”; a condition that tells them apart may be missing. Equal entries are not always repeated.

Tests used:
3T3-L1 adipocytes = test: FGF21 activity assay, glucose uptake in 3T3-L1 adipocytes; assay type: cell-based, mouse
Procedure: The following assay may be used for determining the biological activity, or potency, of FGF21 compounds.
Mouse 3T3-L1 fibroblasts (e.g. available from ATCC, catalogue no. CL-173) are maintained in basal medium (DMEM (4500 mg/I Glucose) with 10% Fetal Bovine Serum (FBS) and Penicillin/Streptomycin). The cells are not allowed to reach confluence and should be passed (transferred to new vials) before reaching approx. 60% of confluency (by visual inspection).
For the glucose uptake assay, cells are plated 80,000 cells/well in a 24 well plate, or 20,000 cells/well in a 96 well plate, and when they reach confluency (high density, with a view to have differentiated adipose cells made), the medium is changed from basal medium to basal medium containing Troglitazone, IBMX, Dexamethasone (commercially available from, e.g., Sigma) and human insulin (commercially available from, e.g., Novo Nordisk A/S).
The cells are used 7-14, preferably 7-10, days after initiation of differentiation. […] The cells are lysed with Triton X-100 and lysates transferred to a 96 wells plate, microscint-40 (commercially available from, e.g., Perkin Elmer) is added and amount of tracer counted in a TOP-counter (e.g. a Packard top-counter from Perkin Elmer).
The EC50 of the FGF21 compound in question is calculated, and may be indicated relative to that of, e.g., compound F1.

[1] = test system: pancreatic islets from diabetic db/db mice; test: Restoration of glucose stimulated insulin release ex vivo (islet perifusion); assay type: cell-based; parameters: AUC for time 35-75 minutes (glucose response), single repetitions / AUC for time 75-140 minutes (forskolin response), single repetitions: unit not given here; conditions: FGF21 = 50 nM Compound F1, GLP-1 = 100 nM Compound G3
Procedure: This ex vivo example investigates the ability of pancreatic islets from diabetic db/db mice to restore, in response to treatment with FGF21 and GLP-1 compounds, the ability to release insulin in response to glucose stimulation.
Islets from 25 db/db mice (Charles River), 15 weeks of age, were isolated according to the following procedure:
Animals were killed by cervical dislocation and fixated with pins on a Styrofoam plate. Pancreata were removed and transferred to a Packard vial containing 5 ml collagenase (Life Science, grade II, cat. no. 100502) 300 units/ml (one pancreas/vial) which was kept on ice until all pancreata were removed. Then the pancreata were shaken in the Grant/Edmund S25 thermoshaker at 200 strokes/min. at 37° C. for 5 min. The tissue was transferred to a fresh vial containing 5 ml 150 units/ml collagenase (supernatant was discarded) and shaken again in the thermoshaker for 5 min. The tissue was further shaken 3-5 min. on the thermoshaker, and thereafter all shaking is done by hand for 5-10 sec. each time. These steps were repeated until all tissue was digested. The process was followed continuously under the stereomicroscope and once digested the tissue was pooled and collected in progressively fewer tubes. All supernatants were washed 3 times in HBSS+0.5% NCS (HBSS (10×) from Gibco, cat. no. 14060, is diluted 10× in H2O before use, Newborn Calf Serum (NCS) from Gibco, cat. no. 26010-066), allowed to sediment for 5 min. between each wash, and left on ice, following which the islets were ready for picking. Islets were purified by transferring a little bit of supernatant to a Petri dish, filling up with HBSS+NCS and subsequently transferring (by mouth pipetting) with a constriction pipette to a new Petri dish. From there the islet were re-picked until pure, and then incubated in RPMI 1640 medium (Gibco, cat no 61870-010)+10% NCS at 37° C.
After incubation, the islets were washed in Krebs Ringer solution (115 mM NaCl, 4.7 mM KCl, 2.6 mM CaCl2, 1.2 mM KH2PO4, 1.2 mM MgSO4, 10 mM HEPES, 0.2% BSA, 2 mM glutamine, 5 mM NaHCO3, pH 7.4) and subsequently used in an islet perifusion experiment (Suprafusion 2500 from Brandel). For each of the three preincubation conditions four perifusion columns each with 60 islets were used. The islets were placed in Bio-gel P2 (Bio-Rad. cat. no. 150-4114) in the columns with a nylon mesh below and above the gel. The islets were initially perifused for 40 minutes with Krebs Ringer solution containing 3 mM glucose to obtain a stable baseline of insulin release. After 40 minutes the buffer was exchanged to 15 mM glucose for 30 minutes (time 40-70 min). Then the buffer was exchanged to 15 mM glucose containing 10 μM forskolin (Tocris 1099, batch 3A/86008) for 40 minutes (time 70-110 min). Finally the buffer was exchanged to low glucose (3 mM) for 30 minutes (time 110-140 min). The buffer was set to flow through the perifusion system at a rate of 0.3 ml/minute. Samples were taken every 5 minutes from time 30 to 140 min. Samples were stored at −20° C. and subsequently analysed for insulin, essentially as described by Poulsen et al. in Journal of Biomolecular Screening 12(X); p. 1-8, 2007 (LOCI (Luminescent Oxygen Channeling Immunoassay) sandwich immunoassay).
The results (ng/ml insulin) are shown in Table 1 below as mean+/−standard error of mean (SEM). The figures for the control and the FGF21 compound are based on three repetitions (due to problems with one of the four columns in these two experiments), while the figures for the GLP-1 compound are based on four repetitions.
The corresponding Area Under the Curve (designated AUC) figures were also calculated, and for the statistics the Student's T-test was used.

human GLP-1 receptor = human GLP-1 receptor (human, UniProt P43220 24-463); test: cell-based or functional assay
[2] = insulin AUC per perifusion column

Sequence of human GLP-1 receptor (P43220 24-463): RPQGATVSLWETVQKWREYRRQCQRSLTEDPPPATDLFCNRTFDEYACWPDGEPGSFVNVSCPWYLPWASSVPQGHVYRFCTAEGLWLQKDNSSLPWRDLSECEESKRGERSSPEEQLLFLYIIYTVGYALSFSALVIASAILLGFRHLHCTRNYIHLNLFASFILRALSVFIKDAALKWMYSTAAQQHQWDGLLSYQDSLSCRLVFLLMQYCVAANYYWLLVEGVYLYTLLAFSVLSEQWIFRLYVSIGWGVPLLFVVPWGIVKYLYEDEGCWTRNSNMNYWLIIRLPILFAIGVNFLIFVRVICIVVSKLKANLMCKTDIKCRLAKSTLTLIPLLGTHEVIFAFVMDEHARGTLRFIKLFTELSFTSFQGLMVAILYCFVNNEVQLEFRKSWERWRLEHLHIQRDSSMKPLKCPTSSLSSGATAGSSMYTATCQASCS

Molecule: S-71-({2-[2-(2-{2-[2-(2-{2-[(S)-4-carboxy-4-(19-carboxynonadecanoyl-amino)butyrylamino]ethoxy}ethoxy)acetylamino]ethoxy}ethoxy)acetylamino]ethylcarbamoyl}methyl)-[Cys71]Met-FGF21 [compound F2]
- EC50 relative to that of compound F1 (3T3-L1 adipocytes): 11%

Molecule: N-epsilon26-[2-(2-{2-[2-(2-{2-[(S)-4-Carboxy-4-(17-carboxyheptadecanoylamino)butyrylamino]ethoxy}-ethoxy)acetylamino]ethoxy}ethoxy)acetyl][Aib8,Arg34]GLP-1-(7-37) [compound G3]
- AUC for time 35-75 minutes (glucose response), single repetitions [1, 2]: 450.5 and 528.5 and 492.9 and 367.8
- AUC for time 75-140 minutes (forskolin response), single repetitions [1, 2]: 3339 and 4005 and 3037 and 2674
- AUC for time 75-140 minutes (forskolin response), mean ([1]; insulin AUC, * FGF21 vs GLP-1): (mean 3239)
- AUC for time 35-75 minutes (glucose response), mean ([1]; insulin AUC, ** vs control): (mean 459.9**)

B1: N-epsilon37-[2-(2-{2-[2-(2-{2-[(S)-4-Carboxy-4-({trans-4-[(19-carboxynonadecanoylamino)methyl]cyclohexanecarbonyl}amino)butyrylamino]ethoxy}ethoxy)acetylamino]e … (peptide)
peptide: HAEGTFTSDVSSYLEEQAAREFIAWLVRGRK
modifications: DesaminoHis at position 7 (GLP-1 numbering; position 1 of SEQ ID NO:3); Lys37 acylated at N-epsilon with 19-carboxynonadecanoyl-Trx-gamma-Glu-OEG-OEG albumin binder
- EC50 of cAMP formation (AlphaScreen cAMP assay), relative to that of compound G1 (human GLP-1 receptor): ~5 times the EC50 of compound G1

B2: N-alpha1-[2-(2-{2-[2-(2-{2-[(S)-4-carboxy-4-(17-carboxyheptadecanoylamino)butyrylamino]ethoxy}ethoxy)acetylamino]ethoxy}ethoxy)acetyl][Arg56, Arg59, Arg69, Arg122]-Met-FGF21 (protein, listed as Homo sapiens)
chain: HPIPDSSPLLQFGGQVRQRYLYTDDAQQTEAHLEIREDGTVGGAADQSPESLLQLRALRPGVIQILGVRTSRFLCQRPDGALYGSLHFDPEACSFRELLLEDGYNVYQSEAHGLPLHLPGNRSPHRDPAPRGPARFLPLPGLPPALPEPPGILAPQPPDVGSSDPLSMVGPSQGRSPSYAS
modifications: N-terminal Met; N-alpha fatty diacid-gGlu-OEG-OEG acylation; mat_peptide (1)..(181); DISULFID (75)..(93)
- EC50 relative to that of compound F1 (3T3-L1 adipocytes): 30%
